According to publication PMC8165021 (Bioorganic & medicinal chemistry letters, 2021):

Experiments:
[1] = molecular target: T1, D3R (Homo sapiens, UniProt P35462); experiment: Radioligand binding at D3R; settings: for D3R selectivities versus the other dopamine receptors tested: versus D1R, D2R, D4R, D5R
[2] = molecular target: T1, D3R; settings: flexible n-butyl linker compound from previous study; ref [19]; cited from earlier work

T1 sequence (P35462 whole entry): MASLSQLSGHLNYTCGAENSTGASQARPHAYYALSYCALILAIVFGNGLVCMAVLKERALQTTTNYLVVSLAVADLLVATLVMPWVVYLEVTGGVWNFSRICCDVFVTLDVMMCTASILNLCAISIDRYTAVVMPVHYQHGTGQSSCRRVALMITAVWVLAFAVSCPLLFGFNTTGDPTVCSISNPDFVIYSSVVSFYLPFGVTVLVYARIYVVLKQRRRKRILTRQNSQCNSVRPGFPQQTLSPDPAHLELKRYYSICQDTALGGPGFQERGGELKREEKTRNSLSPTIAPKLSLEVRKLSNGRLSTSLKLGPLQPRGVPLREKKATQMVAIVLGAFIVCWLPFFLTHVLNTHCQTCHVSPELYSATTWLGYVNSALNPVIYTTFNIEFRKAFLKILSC

COc1cc2c(cc1O)CN(Cc1ccccc1CNC(=O)c1cccc(C#N)c1)CC2 [5i]
D3R selectivity versus D4R ([1]; ratio of Ki values): > 100 fold

COc1cc2c(cc1OC)CN(Cc1ccccc1CNC(=O)c1cccc(C#N)c1)CC2 [5s]
D3R selectivities versus the other dopamine receptors tested [1]: 15- to 420 fold

COc1cc2c(cc1OC)CN(Cc1ccccc1CNC(=O)c1ccc(C#N)cc1)CC2 [5t]
D3R selectivities versus the other dopamine receptors tested [1]: 15- to 420 fold

O=C(NCc1ccccc1CN1CCc2cc(O)c(O)cc2C1)c1cccc(Br)c1 [6a]
D3R selectivity versus D1R, D2R and D4R [1]: < 50 fold

COc1cc2c(cc1O)CN(CCCCNC(=O)c1ccc(C#N)cc1)CC2 [compound 1]
selectivity for D3R over σ2R [2]: good selectivity
